“Also recorded” adds a separate entry of the source.
Key:
[1] = tested on: cell lines representing different models of solid tumors (breast, prostate and pancreatic cancers); assay: Growth inhibition in cell lines representing different solid tumors; type: cell-based; settings: all tumor types tested: breast
Protocol: (§1) In vitro growth inhibition assay: Growth inhibitory potency was evaluated using the SRB assay. Briefly, cells were plated in 96-well in triplicate and treated with drugs (0.0065 μM to 100 μM) 24 h after seeding. Following drug treatment, the cells were fixed using 50 μl of cold TCA (50%) for 1 h at 4° C., washed five times with tap water, and stained for 30 min at room temperature with SRB (0.4%) in acetic acid (0.5%). The plates were subsequently rinsed five times with acetic acid (1%) and allowed to air dry. The resulting purple residue was dissolved in Tris base (200 μl, 10 mM), and optical densities read on a ELx808 BioTek microplate reader. […] values were determined using the GraphPad Prism software.

SUM149 TNBC cells = assay: In vitro growth inhibition (SRB), SUM149; type: cell-based
Protocol: as §1

prostate cancer cells = assay: In cellulo testing, prostate cancer; type: cell-based
Protocol: (§2) Cell Culture: All the cell lines used were cultured at 37° C. in 5% CO2. HEK293T and MDA were maintained in Dulbecco's Modified Eagle Medium (DMEM) (Wisent Bio) with 10% fetal bovine serum (FBS) (Gibco). SUM159 was maintained in Ham's F-12 media with 5% FBS, 5 μg/mL insulin and 1 μg/mL hydrocortisone (Wisent Bio). HPAF-II was maintained in Eagle's Minimum Essential Medium (EMEM) (Wisent Bio) with 10% FBS. PC-3 was maintained in F-12K medium with 10% FBS.
as §1

MDA-MB-231 TNBC cells = assay: In vitro growth inhibition (SRB), MDA-MB-231; type: cell-based
Protocol: as §1

[2] = tested on: Rb-positive SUM159 TNBC cells; assay: Apoptosis assay (AnnexinV/PI), SUM159; type: cell-based, human
Protocol: (§3) Apoptosis assay: Apoptotic rates were analyzed and quantified by flow cytometry following AnnexinV/PI staining on SUM159 and MDA-MB-468 breast cancer cells.

CDK6/cyclin D3 = CDK6/cyclin D3 (Homo sapiens, UniProt Q00534); assay: In vitro kinase assay, CDK6/cyclin D3; type: biochemical
CDK6/cyclin D3, sequence (Q00534 whole entry): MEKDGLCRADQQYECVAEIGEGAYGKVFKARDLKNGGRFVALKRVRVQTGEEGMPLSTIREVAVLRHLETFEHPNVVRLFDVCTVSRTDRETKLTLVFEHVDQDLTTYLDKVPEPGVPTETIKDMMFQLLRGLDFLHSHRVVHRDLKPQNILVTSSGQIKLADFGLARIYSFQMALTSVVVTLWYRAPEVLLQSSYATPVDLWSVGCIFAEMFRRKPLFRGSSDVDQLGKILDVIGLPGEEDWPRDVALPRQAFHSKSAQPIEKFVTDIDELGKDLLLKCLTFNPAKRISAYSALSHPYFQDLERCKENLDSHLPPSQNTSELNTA
CDK6/cyclin D3, sequence (P30281 whole entry partner): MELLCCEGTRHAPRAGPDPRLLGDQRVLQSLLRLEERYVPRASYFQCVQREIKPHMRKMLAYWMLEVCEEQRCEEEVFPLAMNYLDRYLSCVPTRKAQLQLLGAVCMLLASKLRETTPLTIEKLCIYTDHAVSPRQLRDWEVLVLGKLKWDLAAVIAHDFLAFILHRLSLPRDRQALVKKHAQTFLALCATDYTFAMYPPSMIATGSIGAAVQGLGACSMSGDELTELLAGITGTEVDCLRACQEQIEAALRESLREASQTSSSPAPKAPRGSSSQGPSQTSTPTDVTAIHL
Source text: (§4) In vitro kinase profiling: To assess on-target and off-target kinase affinity and specificity of our lead inhibitor KP108 in a full kinome profiling, we will test the lead compound against Reaction Biology Corporation four panels (Wild Type. Panel (374 kinases), Mutant Panel (232 kinases), Atypical Panel (20 kinases), Lipid Panel (17 lipid kinases). This was outsourced to Reaction Biology Corporation, a biopharmaceutical company focused on the development of kinase inhibitors (http://www.reactionbiology.com/webapps/site/).

[3] = tested on: panel of 50 different kinases; assay: Kinase profiling against a panel of 50 kinases at 100 nM; type: biochemical; settings: 100 nM range, except PLK1
Source text: (§5) As expected, at these high concentrations, the relative % of inhibition is saturated at nearly 100% for both CDK4 and CDK6. To validate CDK4/6 and PLK1 as functional KP108 targets, we then assessed CDK4-mediated Rb phosphorylation (Ser780) and PLK1-mediated autophosphorylation (Thr210) in vitro.
(§6) […] This was outsourced to Reaction Biology Corporation, a biopharmaceutical company focused on the development of kinase inhibitors (http://www.reactionbiology.com/webapps/site/).

PLK family members = assay: Effects on PLK family members; type: biochemical
[4] = tested on: SKBR3 HER2+ breast cancer cells; assay: ALDH+ cancer stem cell numbers (ALDEFLUOR, flow cytometry), SKBR3; type: cell-based; settings: equimolar concentrations vs existing CDK4/6 inhibitors
[5] = tested on: Rb-deficient MDA-MB-438 cell line; assay: In vitro growth inhibition (SRB), Rb-deficient MDA-MB-438; type: cell-based
Protocol: as §1

[6] = biological target: Polo-like Kinase-1 (PLK1) (Homo sapiens, UniProt P53350); assay: Kinase profiling / inhibition of PLK1; type: biochemical; settings: panel of 50 kinases
Polo-like Kinase-1 (PLK1), sequence (P53350 whole entry): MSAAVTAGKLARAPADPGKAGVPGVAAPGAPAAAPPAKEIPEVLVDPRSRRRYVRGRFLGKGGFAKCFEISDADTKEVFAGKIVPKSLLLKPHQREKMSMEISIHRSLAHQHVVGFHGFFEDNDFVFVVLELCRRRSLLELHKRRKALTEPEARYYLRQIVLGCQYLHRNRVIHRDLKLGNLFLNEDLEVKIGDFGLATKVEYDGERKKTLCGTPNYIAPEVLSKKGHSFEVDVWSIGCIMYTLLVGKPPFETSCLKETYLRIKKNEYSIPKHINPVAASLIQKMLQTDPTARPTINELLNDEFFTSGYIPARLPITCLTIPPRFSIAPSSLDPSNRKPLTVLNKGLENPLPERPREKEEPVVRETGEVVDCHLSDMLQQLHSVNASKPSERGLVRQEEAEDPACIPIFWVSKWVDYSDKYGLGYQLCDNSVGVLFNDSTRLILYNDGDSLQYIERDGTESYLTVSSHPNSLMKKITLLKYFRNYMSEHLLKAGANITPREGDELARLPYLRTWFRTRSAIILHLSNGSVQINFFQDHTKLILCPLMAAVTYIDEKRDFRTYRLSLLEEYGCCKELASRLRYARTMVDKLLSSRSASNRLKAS
Source text: as §5, §6

pancreatic cancer cells = assay: In cellulo testing, pancreatic cancer; type: cell-based
Protocol: as §2, §1

SUM159 lung metastasis = assay: Preclinical lung metastasis model (tail vein injection of TNBC cells); type: in vivo; settings: NSG mice, daily I.P. 50 mg/kg for 2 weeks
Protocol: To then functionally assess our lead in a preclinical model of tumor metastasis, immune-deficient non-obese diabetic scid gamma (NSG) mice were injected intravenously with 10^6 TNBC cells. […] Lungs were collected and stained with Bouin's solution and, the numbers of lung metastatic nodules were quantified. In vivo studies: All mice were housed and handled in accordance to the approved guidelines of the Canadian Council on Animal Care (CCAC) “Guide to the Care and Use of Experimental Animals” and under the conditions and procedures approved by the Animal Care Committee of McGill University (AUP #7497). The NSG mouse breeders were purchased from Jackson Laboratory (California, US). Female and male NSG mice between 7 and 9 weeks of age were bred and maintained in the animal facility of the Research Institute of the McGill University Health Center, as per the guidelines of the McGill University Animal Care Committee. Intravenous injection model: cells (1×106/each) were injected by tail vein route to develop lung metastases. The mice were euthanized with a maximum of 42-day (SUM159) post cancer cells injection. The lung tissues were counted for metastases nodules post Bouin's solution fixation.

SUM159 TNBC xenografts = assay: Orthotopic SUM159 TNBC xenograft (mammary fat pad); type: in vivo, NSG mice
Protocol: We further assessed our compound on breast cancer tumorigenesis in vivo, through orthotopic transplantation of SUM159 TNBC cells into the mammary fat pad of NSG mice. […] Drugs were administered through i.p. daily injections for two weeks (50 mg/kg) and tumor volumes were measured, as per our team optimized protocol^10,19.
In vivo studies: All mice were housed and handled in accordance to the approved guidelines of the Canadian Council on Animal Care (CCAC) “Guide to the Care and Use of Experimental Animals” and under the conditions and procedures approved by the Animal Care Committee of McGill University (AUP #7497). The NSG mouse breeders were purchased from Jackson Laboratory (California, US). Female and male NSG mice between 7 and 9 weeks of age were bred and maintained in the animal facility of the Research Institute of the McGill University Health Center, as per the guidelines of the McGill University Animal Care Committee.
Xenograft model: Human breast cancer cells, SUM159 (1×10^6/mouse) were diluted in 1:1 with Matrigel and then inoculated in 8-week old, female NSG mice by mammary fat pad route to generate breast cancer tumor. Tumor sizes were measured with a digital electronic caliper three times per week to reach maximum volume of 1000 mm3 prior to euthanasia. Tumor volumes were calculated according to the following formula: [4/3×π×(Length/2)×(Width/2)2] to generate a growth curve.

[7] = tested on: SUM159 Rb-positive TNBC cells; assay: Cell cycle progression, Rb-positive TNBC cells; type: cell-based, human
[8] = tested on: CSCs (tumorsphere formation); assay: Tumorsphere assay; type: cell-based; settings: in vitro
Protocol: Tumorsphere assays: Monolayer cells were enzymatically dissociated into single cells with trypsin-EDTA. Cells were plated at 10,000 cells per well in a 24-well low-attachment plate (Coming). Cells were grown for 7 days in DMEM/F12 supplemented with B27 (Invitrogen) in the presence of 10 ng/ml EGF and 10 ng/ml bFGF. Tumorsphere-forming efficiency was calculated as the number of spheres divided by the number of singles cells seeded, expressed as a percentage.

[9] = tested on: CDK4-mediated Rb phosphorylation (Ser780); assay: Immunoblotting of Rb phosphorylation in TNBC cells; type: cell-based
Source text: as §5
(§7) As PLK1 is overexpressed in 80% of metastatic breast cancers and the fact that it acts by blocking the G2-M phase of the cell cycle, this provides an attractive added value for KP108, further expanding its potential tumor growth inhibitory capacity.
(§8) Western Blot After washing the infected cells with ice-cold PBS twice, 300 μL of ice-cold cell lysis buffer (1M Tris-HCl, 5M NaCl, 10% Triton, 100 mM EDTA, 100 mM Na3VO4, ×100 Protease Inhibitor, 10× Phosphatase Inhibitor) was added to the dish. All the adherent cells were scraped off the dish and the cell suspension were transferred to a microcentrifuge tube. The cell suspension was left to incubated on ice for 10 min and the cell lysate mixture was centrifuge at 12,000 RPM for 20 mins at 4° C. The supernatant was transferred to a new microcentrifuge tube on ice. The protein concentration was determined using the BCA Kit (ThermoFisher). The lysate samples were diluted in 5×SDS Buffer and were heated at 95° C. for 5 min. The ladder and the samples were loaded into the wells of a SDS PAGE gel and the gel was then run at 100V. […]

CDK4/cyclin D3 = CDK4/cyclin D3 (Homo sapiens, UniProt P11802); assay: In vitro kinase assay, CDK4/cyclin D3; type: biochemical
CDK4/cyclin D3, sequence (P11802 whole entry): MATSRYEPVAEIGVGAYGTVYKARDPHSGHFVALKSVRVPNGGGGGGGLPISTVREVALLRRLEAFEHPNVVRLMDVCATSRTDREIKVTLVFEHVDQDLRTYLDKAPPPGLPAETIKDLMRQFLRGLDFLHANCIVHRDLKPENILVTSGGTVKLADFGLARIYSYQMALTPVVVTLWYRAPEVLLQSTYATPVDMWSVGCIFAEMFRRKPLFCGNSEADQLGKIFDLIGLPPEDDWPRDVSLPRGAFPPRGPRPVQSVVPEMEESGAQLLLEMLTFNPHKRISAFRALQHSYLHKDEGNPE
CDK4/cyclin D3, sequence (P30281 whole entry partner): as the sequence (P30281 whole entry partner) above
Source text: as §4

[10] = tested on: Rb-deficient MDA-MB-468 TNBC cells; assay: Apoptosis assay (AnnexinV/PI), MDA-MB-468; type: cell-based
Protocol: as §3

[11] = tested on: MDA-MB-468 Rb-deficient TNBC cells; assay: Cell cycle progression, Rb-deficient TNBC cells; type: cell-based
[12] = tested on: SUM159 triple negative breast cancer cells; assay: ALDH+ cancer stem cell numbers (ALDEFLUOR, flow cytometry), SUM159; type: cell-based, human; settings: TNBC (SUM159); equimolar concentrations vs existing CDK4/6 inhibitors
Protocol: Flow cytometry was used to measure the ALDH+ CSC numbers, as previously described^6,11-13. […] As a result, KP108 was further selected as the first lead compound.
ALDEFLUOR assay was performed as described in the manufacturer's protocol, 1×10^6 SUM159 cells were centrifuged and resuspended in 1 ml ALDH assay buffer. 5 μl substrate was added into the cell suspension. For negative control, 500 μl cell suspension were then transferred into a new tube containing 5 μl DEAB. Cells were then incubated for 40 min at 37° C. Percentage of ALDH+ cells were analyzed with Accuri C6 flow cytometer and Flowjo software.

[13] = tested on: PLK1-mediated autophosphorylation (Thr210); assay: Immunoblotting of PLK1 autophosphorylation in TNBC cells; type: cell-based
Source text: as §5, §7, §8

IC50 compared with palbociclib [1]: lower IC50in all tumor types tested
IC50 (CDK6/cyclin D3; in vitro kinase assay): 0.0204 µM
relative % of inhibition, CDK6 (CDK6/cyclin D3; kinase panel, 100 nM range): ~100%
off-target cross-reactivity in kinase panel [3]: no or little cross-reactivity
animal health / weight (SUM159 TNBC xenografts; treated mice, 50 mg/kg i.p. daily): did not affected animal health
selectivity to CDK4 than CDK6 (CDK4/cyclin D3; CDK4 vs CDK6): 26 times
IC50 (CDK4/cyclin D3; in vitro kinase assay): 0.00077 µM
relative % of inhibition, CDK4 (CDK4/cyclin D3; kinase panel, 100 nM range): ~100%
Compound: C=CC(=O)Nc1ccc(C(=O)N2CCN(c3ccc(Nc4ncc5c(C)c(C(C)=O)c(=O)n(C6CCCC6)c5n4)nc3)CC2)cc1 [KP108, N-(4-(4-(6-((6-acetyl-8-cyclopentyl-5-methyl-7-oxo-7,8-dihydropyrido[2,3-d]pyrimidin-2-yl)amino}pyridin-3-yl)piperazine-1-carbonyl)phenyl)acrylamide]
activity in cellulo (SUM149 TNBC cells): great activity in cellulo
activity in cellulo (prostate cancer cells): very active
activity in cellulo (MDA-MB-231 TNBC cells): great activity in cellulo
pro-apoptotic effect [2]: significant pro-apoptotic effect
effects on other PLK family members (PLK family members): only targets PLK1
elimination of ALDH+ CSCs [4]: significant superior efficacy; also recorded: nearly maximal efficacy
activity in cellulo [5]: great activity in cellulo
inhibition of PLK1 [6]: efficiently inhibit; also recorded: highlighting PLK1 as a potential KP108 target
activity in cellulo (pancreatic cancer cells): very active
lung colonization / lung metastatic nodules (SUM159 lung metastasis): great efficacy and sustained activity; also recorded: significantly prevented, to almost completely block lung colonization
primary tumor development (tumor volume) (SUM159 TNBC xenografts; NSG mice, i.p. daily for two weeks, 50 mg/kg): great efficacy and sustained activity; also recorded: great efficacy in preventing primary tumor development
tumor growth once injections were stopped (SUM159 TNBC xenografts; after end of the two-week 50 mg/kg i.p. treatment): growth inhibitory effects sustained over time, even once injections were stopped
effect on cell cycle progression [7]: induce G1 arrest
reduction of tumorsphere formation [8]: superior efficacy in reducing tumorsphere formation
block of Rb phosphorylation (Ser780) [9]: efficiently block phosphorylation
pro-apoptotic effect [10]: significant pro-apoptotic effect; also recorded: almost complete cell death
effect on cell cycle progression [11]: efficiently induce G2 arrest; also recorded: dose-dependent increase in the G2 phase
elimination of ALDH+ CSCs [12]: significant superior efficacy; also recorded: nearly maximal efficacy
block of PLK1 autophosphorylation (Thr210) [13]: efficiently block phosphorylation

Reference: patent US12195456B1, “Single molecules having mixed CDK4, CDK6, PLK1 targeting properties” (priority 2019, dated 2025)
